Experimental findings from patent publication US12478620B2, “Cyano-substituted cyclic hydrazine derivative and application thereof” (E-nitiate Biopharmaceuticals (Hangzhou) Co., Ltd, priority 2019, dated 2025) are described below.

One test concerns the target JAK1 (Homo sapiens, UniProt P23458). Kind of test: JAK kinase inhibitor activity detection (ULight-JAK-1 substrate, Eu-labeled anti-phosphotyrosine antibody), JAK1. The format is biochemical. The conditions noted are these: JAK1 10 nM, substrate 50 nM, ATP 40 uM, 2 h room temperature. The method, then: (§1) Activity Detection of Small Molecule Inhibitors of JAK Kinase
(§2) • (1) kinase reaction buffer • Prepare the kinase reaction buffer with the following components: 50 mM HEPES, pH 7.5, 1 mM EGTA, 10 mM MgCl2, 2 mM DTT, 0.01% Tween20 • (2) 1× detection buffer • To prepare detection buffer, dilute 10× detection buffer to 1× with deionized water 9:1 • (3) 4× kinase solution • Dilute JAK to 4× final concentration by JAK reaction buffer (JAK1: 40 nM, JAK2: 0.5 nM) • (4) 4× substrate solution • Dilute ULight™-JAK-1 (Tyr1023) substrate to 200 nM by kinase reaction buffer (final concentration: 50 nM) • (5) 4×ATP solution • Dilute ATP to 4× final concentration by kinase reaction buffer (JAK1: 160 μM, JAK2: 40 μM) • (6) 4× compound testing solution • DMSO dissolves the testing compound into 10 mM stock solution, then prepared to the desired concentration with 3-fold serial dilution, and 10 concentration points were set for each compound. Besides, the final concentration range of the testing compound is: 10 μM-0.5 nM • (7) 4× enzyme reaction termination liquid • 1× test buffer dissolves EDTA to 40 mM (EDTA final concentration: 10 mM) • (8) 4× antibody detection solution • 1× test buffer dilutes Eu labeled antibody (anti-phosphotyrosine (PT66)) to 8 nM (antibody final concentration: 2 nM) 2. Experimental Process • (1) Successively add 2.5 μL 4×JAK solution, and 2.5 μL of diluted 4× test compound solution in different concentrations to the 384 microporous plate, and set 2 multi-wells for each concentration. Meanwhile, set enzyme solution blank control group and negative control group (DMSO group). • (2) Shake the 384-hole plate, mix enzymes and compounds, centrifuge at 1000 rpm for 1 minute, and incubate at room temperature for 60 minutes • (3) Add 2.5 μL of 4× substrate solution to a 384-hole plate and centrifuge at 1000 rpm for 1 min • (4) Add 2.5 μL of 4×ATP solution to the 384 multi-well plate and centrifuge at 1000 rpm for 1 minute to initiate the enzyme reaction. • (5) JAK1 reacts at room temperature for 2 h, and JAK2 react at room temperature for 1 h. • (6) The final concentrations of each group of the JAK1 reaction are: JAK1: 10 nM, substrate: 50 nM, ATP: 40 uM, and the final concentration range of the test compound is: 10 μM-0.5 nM • The final concentrations of each group of the JAK2 reaction are: JAK2: 0.125 nM, substrate: 50 nM, ATP: 10 μM, and the final concentration range of test compounds is: 10 μM-0.5 nM • (7) After the enzyme reaction, add 5 μL of 4× enzyme reaction stop solution to each well of the 384-well plate with 1000 rpm, centrifuge for 1 minute, and incubate at room temperature for 5 min. • (8) Add 5 μL of 4× detection antibody solution to each well of a 384-well plate (final concentration of detection antibody is 2 nM) with 1000 rpm, centrifuge for 1 minute, and incubate at room temperature for 1 h. • (10) After antibody incubation, measure the signal value of each well on an Envision plate reader 3. Data Analysis • (1) Taking the enzyme solution blank control group as 100% inhibition rate and the negative control group (DMSO group) as 0% inhibition rate, calculate the percentage inhibition rate corresponding to each concentration of the tested compounds • (2) In GraphPad Prism software, nonlinear regression analysis is performed on the concentration logarithm of the test compound and the corresponding percentage inhibition rate to obtain the half-inhibitory concentration (IC50) of the test compound.

The next test deals with JAK2 (Homo sapiens, UniProt O60674). Kind of test: JAK kinase inhibitor activity detection (ULight-JAK-1 substrate, Eu-labeled anti-phosphotyrosine antibody), JAK2. It counts as biochemical. The conditions noted are these: JAK2 0.125 nM, substrate 50 nM, ATP 10 μM, 1 h room temperature. The method, then:
as §1, §2

JAK2, sequence (O60674 whole entry, species assumed): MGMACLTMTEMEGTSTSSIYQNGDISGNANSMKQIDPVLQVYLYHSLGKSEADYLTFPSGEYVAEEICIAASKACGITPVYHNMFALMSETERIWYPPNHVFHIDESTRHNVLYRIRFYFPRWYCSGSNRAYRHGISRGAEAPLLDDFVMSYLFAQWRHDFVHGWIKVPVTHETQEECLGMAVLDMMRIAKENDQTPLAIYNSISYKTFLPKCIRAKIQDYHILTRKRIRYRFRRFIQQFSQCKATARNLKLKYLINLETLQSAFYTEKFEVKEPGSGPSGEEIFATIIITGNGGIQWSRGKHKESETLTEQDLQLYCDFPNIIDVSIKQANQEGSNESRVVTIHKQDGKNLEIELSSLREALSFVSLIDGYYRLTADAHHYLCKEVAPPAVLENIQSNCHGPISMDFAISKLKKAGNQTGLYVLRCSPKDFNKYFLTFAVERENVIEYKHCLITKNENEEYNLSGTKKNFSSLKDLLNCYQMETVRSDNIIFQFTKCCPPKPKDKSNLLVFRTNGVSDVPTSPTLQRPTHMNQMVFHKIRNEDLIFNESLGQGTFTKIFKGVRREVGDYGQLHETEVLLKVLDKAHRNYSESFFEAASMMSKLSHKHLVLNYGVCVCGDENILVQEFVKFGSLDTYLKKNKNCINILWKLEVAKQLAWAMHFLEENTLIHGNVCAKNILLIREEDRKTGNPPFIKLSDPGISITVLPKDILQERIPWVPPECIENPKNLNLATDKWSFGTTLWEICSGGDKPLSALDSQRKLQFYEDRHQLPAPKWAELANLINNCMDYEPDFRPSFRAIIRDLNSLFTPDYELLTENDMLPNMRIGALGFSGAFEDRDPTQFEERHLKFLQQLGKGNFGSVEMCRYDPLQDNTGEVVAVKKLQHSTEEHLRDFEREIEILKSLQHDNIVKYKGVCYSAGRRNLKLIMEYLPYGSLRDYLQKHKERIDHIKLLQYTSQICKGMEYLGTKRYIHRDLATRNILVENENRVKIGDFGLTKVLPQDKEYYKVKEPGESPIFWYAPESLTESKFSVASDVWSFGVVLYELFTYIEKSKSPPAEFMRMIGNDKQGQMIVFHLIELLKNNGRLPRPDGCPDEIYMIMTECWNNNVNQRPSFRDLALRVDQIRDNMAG
JAK1, sequence (P23458 whole entry, species assumed): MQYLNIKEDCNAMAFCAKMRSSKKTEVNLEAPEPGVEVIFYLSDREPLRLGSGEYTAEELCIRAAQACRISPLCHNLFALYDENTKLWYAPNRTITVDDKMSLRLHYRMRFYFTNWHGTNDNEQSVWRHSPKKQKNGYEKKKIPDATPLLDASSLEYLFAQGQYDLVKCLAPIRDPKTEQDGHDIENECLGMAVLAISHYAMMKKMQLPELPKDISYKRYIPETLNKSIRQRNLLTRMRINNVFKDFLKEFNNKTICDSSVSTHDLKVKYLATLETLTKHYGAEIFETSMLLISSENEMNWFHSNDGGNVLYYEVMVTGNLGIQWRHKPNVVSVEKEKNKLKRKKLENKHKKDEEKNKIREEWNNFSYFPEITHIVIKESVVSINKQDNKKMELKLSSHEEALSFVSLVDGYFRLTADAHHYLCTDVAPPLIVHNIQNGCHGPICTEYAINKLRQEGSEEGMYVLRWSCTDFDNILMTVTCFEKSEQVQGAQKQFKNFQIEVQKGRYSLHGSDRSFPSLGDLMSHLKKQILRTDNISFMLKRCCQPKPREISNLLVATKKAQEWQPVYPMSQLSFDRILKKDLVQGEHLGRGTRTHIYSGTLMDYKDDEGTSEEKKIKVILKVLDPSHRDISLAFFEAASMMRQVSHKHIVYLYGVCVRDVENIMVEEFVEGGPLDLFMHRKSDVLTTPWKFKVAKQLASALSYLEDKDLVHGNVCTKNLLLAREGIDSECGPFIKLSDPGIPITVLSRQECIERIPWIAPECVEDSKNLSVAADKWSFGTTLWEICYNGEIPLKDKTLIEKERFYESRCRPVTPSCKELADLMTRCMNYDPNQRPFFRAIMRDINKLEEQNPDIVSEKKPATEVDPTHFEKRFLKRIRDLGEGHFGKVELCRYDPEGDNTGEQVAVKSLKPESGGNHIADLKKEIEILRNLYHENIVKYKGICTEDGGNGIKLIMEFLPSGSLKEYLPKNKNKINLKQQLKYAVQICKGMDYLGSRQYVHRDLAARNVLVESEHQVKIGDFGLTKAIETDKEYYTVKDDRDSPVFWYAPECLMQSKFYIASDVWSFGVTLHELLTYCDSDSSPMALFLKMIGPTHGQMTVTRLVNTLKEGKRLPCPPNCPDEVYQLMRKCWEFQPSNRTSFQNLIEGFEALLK

What is called IC50 is the concentration that gives 50% inhibition. Take `N#CC1CCN(n2cnc3cnc4[nH]ccc4c32)CC1` [Example 1, 1-(imidazo[4,5-d]pyrrolo[2,3-b]pyridine-1(6H)-yl)piperidine-4-carbonitrile]: the results for the 50% inhibitory concentration (IC50) against JAK1 and on JAK2 were 23.8 nM and 70.9 nM, respectively.

Consider `N#CCC1CCN(n2cnc3cnc4[nH]ccc4c32)CC1` [Example 2, 2-(1-(imidazo[4,5-d]pyrrolo[2,3-b]pyridine-1(6H)-yl)piperidin-4-yl)acetonitrile], for which the values for the half-inhibitory concentration (IC50) against JAK1 and against JAK2 were 0.28 nM and 1.7 nM, respectively.

Take `Cc1nc2cnc3[nH]ccc3c2n1N1CCC(CC#N)CC1` [Example 3, 2-(1-(methylimidazo[4,5-d]pyrrolo[2,3-b]pyridine-1(6H)-yl)piperidin-4-yl)acetonitrile]: the half-inhibitory concentration (IC50) at JAK1 turned out to be 0.17 nM; against JAK2 it was 0.28 nM.

Consider `CCc1nc2cnc3[nH]ccc3c2n1N1CCC(CC#N)CC1` [Example 4, 2-(1-(ethylimidazo[4,5-d]pyrrolo[2,3-b]pyridine-1(6H)-yl)piperidin-4-yl)acetonitrile], for which the IC50 on JAK1 came to 0.47 nM; on JAK2, 0.95 nM.

Consider `N#CCC1CCN(n2c(CO)nc3cnc4[nH]ccc4c32)CC1` [Example 5, 2-(1-(2-(hydroxymethyl)imidazo[4,5-d]pyrrolo[2,3-b]pyridine-1(6H)-yl)piperidin-4-yl)acetonitrile], for which the IC50 against JAK1 came to 0.28 nM; against JAK2 it was 1.45 nM.

Regarding `N#CCC1CCN(n2c(CCO)nc3cnc4[nH]ccc4c32)CC1` [Example 6, 2-(1-(2-(2-hydroxyethyl)imidazo[4,5-d]pyrrolo[2,3-b]pyridine-1(6H)-yl)piperidin-4-yl)acetonitrile], the half-inhibitory concentration (IC50) against JAK1 worked out at 0.66 nM; at JAK2, 3.89 nM.

On to `C[C@@H](O)c1nc2cnc3[nH]ccc3c2n1N1CCC(CC#N)CC1` [Example 7, (R)-2-(1-(2-(1-hydroxyethyl)imidazo[4,5-d]pyrrolo[2,3-b]pyridine-1(6H)-yl)piperidin-4-yl)acetonitrile], for which the IC50 is 0.08 nM on JAK1 and 4 nM on JAK2.

In the case of `C[C@H](O)c1nc2cnc3[nH]ccc3c2n1N1CCC(CC#N)CC1` [Example 8, (S)-2-(1-(2-(1-hydroxyethyl)imidazo[4,5-d]pyrrolo[2,3-b]pyridine-1(6H)-yl)piperidin-4-yl)acetonitrile], the values for the IC50 against JAK1 and on JAK2 were 1.5 nM and 5 nM, respectively.

In the case of `N#CCC1CCN(n2c(N)nc3cnc4[nH]ccc4c32)CC1` [Example 9, 2-(1-(2-aminoimidazo[4,5-d]pyrrolo[2,3-b]pyridine-1(6H)-yl)piperidin-4-yl)acetonitrile], the 50% inhibitory concentration (IC50) against JAK1 stood at 0.14 nM; at JAK2 it was 0.7 nM.

As for `CS(=O)(=O)NCc1nc2cnc3[nH]ccc3c2n1N1CCC(CC#N)CC1` [Example 10, N-((1-(4-(cyanomethyl)piperidin-1-yl)-1,6-dihydroimidazole[4,5-d]pyrrolo[2,3-b]pyridine-2-yl)methyl)methanesulfonamide], the 50% inhibitory concentration (IC50) against JAK1 worked out at 0.8 nM; against JAK2, 6.1 nM.

Consider `N#CCCC1CCN(n2cnc3cnc4[nH]ccc4c32)CC1` [Example 11], for which the IC50 is 0.57 nM against JAK1 and 2.98 nM at JAK2.

Take `N#CC1CC12CCN(n1cnc3cnc4[nH]ccc4c31)CC2` (stereo not shown) [Example 12, 6-(imidazo[4,5-d]pyrrolo[2,3-b]pyridine-1(6H)-yl)-6-azaspiro[2.5]octane-1-carbonitrile]: the concentration for half-maximal inhibition (IC50) against JAK1 was determined as 1.77 nM; on JAK2, 3.28 nM.

With `C[C@@H](O)c1nc2cnc3[nH]ccc3c2n1N1CCC2(CC1)CC2C#N` (stereo partly drawn) [Example 13, 6-(2-((R)-1-hydroxyethyl)imidazo[4,5-d]pyrrolo[2,3-b]pyridine-1(6H)-yl)-6-azaspiro[2.5]octane-1-carbonitrile], the half-inhibitory concentration (IC50) at JAK1 amounted to 16 nM; on JAK2, 56.7 nM.

For `CC(C)(C#N)C1CCN(n2cnc3cnc4[nH]ccc4c32)CC1` [Example 14, 2-(1-(imidazo[4,5-d]pyrrolo[2,3-b]pyridine-1(6H)-yl)piperidine-4-yl)-2-methyl propionitrile], the figures for the IC50 on JAK1 and at JAK2 were 13.5 nM and 7.5 nM, respectively.

On to `C[C@@H](O)c1nc2cnc3[nH]ccc3c2n1N1CCC(C(C)(C)C#N)CC1` [Example 15, (R)-2-(1-(2-(1-hydroxyethyl)imidazo[4,5-d]pyrrolo[2,3-b]pyridine-1(6H)-yl)piperidine-4-yl)-2-methyl propionitrile], for which the IC50 was determined as 5.14 nM against JAK1 and 16.1 nM at JAK2.

On to `N#CC=C1CCN(n2cnc3cnc4[nH]ccc4c32)CC1` [Example 16, 2-(1-(imidazo[4,5-d]pyrrolo[2,3-b]pyridin-1(6H)-yl)piperidin-4-ylidene)acetonitrile], for which the results for the IC50 against JAK1 and at JAK2 were 1.31 nM and 16.1 nM, respectively.

As for `CC1(CC#N)CCN(n2cnc3cnc4[nH]ccc4c32)CC1` [Example 17, 2-(1-(imidazo[4,5-d]pyrrolo[2,3-b]pyridine-1(6H)-yl)-4-methylpiperidine-4-yl)acetonitrile], the IC50 was 2 nM on JAK1 and 1.2 nM at JAK2.

For the compound `C[C@@H](O)c1nc2cnc3[nH]ccc3c2n1N1CCC(C)(CC#N)CC1` [Example 18, (R)-2-(1-(2-(1-hydroxyethyl)imidazo[4,5-d]pyrrolo[2,3-b]pyridine-1(6H)-yl)-4-methylpiperidine-4-yl)acetonitrile], the half-inhibitory concentration (IC50) amounted to 6.31 nM against JAK1 and 13.8 nM at JAK2.

On to `N#CCC1(O)CCN(n2cnc3cnc4[nH]ccc4c32)CC1` [Example 19, 2-(4-hydroxy-1-(imidazo[4,5-d]pyrrolo[2,3-b]pyridine-1(6H)-yl)-piperidine-4-yl)acetonitrile], for which the concentration for half-maximal inhibition (IC50) on JAK1 amounted to 2.37 nM; against JAK2 it was 6.01 nM.

Turning to `N#CC=C1CC2CCC(C1)N2n1cnc2cnc3[nH]ccc3c21` [Example 20, 2-(8-(imidazo[4,5-d]pyrrolo[2,3-b]pyridin-1(6H)-yl)-8-azabicyclo[3.2.1]octan-3-ylidene)acetonitrile], the figures for the IC50 against JAK1 and against JAK2 were 4.3 nM and 1.9 nM, respectively.

Turning to `N#CCC1CC2CCC(C1)N2n1cnc2cnc3[nH]ccc3c21` (stereo not shown) [Example 21, 2-(8-(imidazo[4,5-d]pyrrolo[2,3-b]pyridin-1(6H)-yl)-8-azabicyclo[3.2.1]octan-3-yl)acetonitrile], the results for the IC50 against JAK1 and on JAK2 were 0.92 nM and 4.77 nM, respectively.

On to `C[C@@H](O)c1nc2cnc3[nH]ccc3c2n1N1C2CCC1CC(=CC#N)C2` [Example 22, 2-(8-(2-((R)-1-hydroxyethyl)imidazo[4,5-d]pyrrolo[2,3-b]pyridin-1(6H)-yl)-8-azabicyclo[3.2.1]octan-3-ylidene)acetonitrile], for which the values for the concentration for half-maximal inhibition (IC50) at JAK1 and against JAK2 were 1.6 nM and 4.04 nM, respectively.

For `C[C@@H](O)c1nc2cnc3[nH]ccc3c2n1N1C2CCC1CC(CC#N)C2` (stereo partly drawn) [Example 23, 2-(8-(2-((R)-1-hydroxyethyl)imidazo[4,5-d]pyrrolo[2,3-b]pyridin-1(6H)-yl)-8-azabicyclo[3.2.1]octan-3-yl)acetonitrile], the IC50 stood at 2.71 nM on JAK1 and 6.07 nM on JAK2.

As to `N#CCN1CCN(n2cnc3cnc4[nH]ccc4c32)CC1` [Example 24, 3-(4-(imidazo[4,5-d]pyrrolo[2,3-b]pyridin-1(6H)-yl)piperazin-1-yl)acetonitrile], the IC50 on JAK1 was determined as 7.72 nM; on JAK2, 46.6 nM.

Turning to `N#CCCN1CCN(n2cnc3cnc4[nH]ccc4c32)CC1` [Example 25, 3-(4-(imidazo[4,5-d]pyrrolo[2,3-b]pyridin-1(6H)-yl)piperazin-1-yl)propanenitrile], the 50% inhibitory concentration (IC50) at JAK1 amounted to 5.2 nM; at JAK2, 5.3 nM.

For the compound `N#CCC(=O)N1CCN(n2cnc3cnc4[nH]ccc4c32)CC1` [Example 26, 3-(4-(imidazo[4,5-d]pyrrorolo[2,3-b]pyridin-1(6H)-yl)piperazin-1-yl)oxypropionitrile], the values for the half-inhibitory concentration (IC50) against JAK1 and on JAK2 were 41.7 nM and 151 nM, respectively.
